US4568693A, “N-Naphthoylglycine derivatives” (Ayerst, McKenna & Harrison, Inc., priority 1981, dated 1986)

Experiments:
[1] = tested on: accumulation of dulcitol in the lenses; test: galactosemic rats, dulcitol accumulation in the lens; format: in vivo, rat (Sprague-Dawley); details: 4 days, vs untreated galactosemic rats
Text: The aldose reductase inhibiting property of the compounds of this invention and the utilization of the compounds in preventing, diminishing and alleviating diabetic complications are demonstrable in experiments using galactosemic rats, see Dvornik et al., cited above. Such experiments are exemplified hereinbelow after the listing of the following general comments pertaining to these experiments:
(a) Four or more groups of six male rats, 50-70 g, Sprague-Dawley strain, were used. The first group, the control group, was fed a mixture of laboratory chow (rodent laboratory chow, Purina) and glucose at 20% (w/w %) concentration. The untreated galactosemic group was fed a similar diet in which galactose is substituted for glucose. The third group was fed a diet prepared by mixing a given amount of the test compound with the galactose containing diet. The concentration of galactose in the diet of the treated groups was the same as that for the untreated galactosemic group.
(b) After four days, the animals were killed by decapitation. The eyeballs were removed and punctured with a razor blade; the freed lenses were rolled gently on filter paper and weighed. The sciatic nerves were dissected as completely as possible and weighed. Both tissues were frozen and can be kept up to two weeks before being analyzed for dulcitol.
(c) The polyol determination was performed by a modification of the procedure of M. Kraml and L. Cosyns, Clin. Biochem., 2, 373 (1969). Only two minor reagent changes were made: (a) The rinsing mixture was an aqueous 5% (w/v) trichloroacetic acid solution and (b) the stock solution was prepared by dissolving 25 mg of dulcitol in 100 ml of an aqueous trichloroacetic acid solution. [N.B.: For each experiment the average value found in the tissue from rats fed the glucose diet was subtracted from the individual values found in the corresponding rat tissue to obtain the amount of polyol accumulated].
The figures under L and N represent the percentage decrease of dulcitol accumulation in the tissues of the lens and sciatic nerve, respectively, for treated rats as compared to untreated rats.

aldose reductase = target: T1, aldose reductase (Bos taurus, UniProt P16116); test: in vitro aldose reductase inhibition (modified Hayman and Kinoshita procedure); format: biochemical, bovine; details: for inhibition at 10 µM: 10^-5 molar, read-out: % Inhibition at Different Molar Concentration (in vitro), 10^-5; for inhibition at 1 µM: 10^-6 molar, read-out: % Inhibition at Different Molar Concentration (in vitro), 10^-6; for inhibition at 0.1 µM: 10^-7 molar, read-out: % Inhibition at Different Molar Concentration (in vitro), 10^-7
T1 construct: the preparation of the enzyme from bovine lens; from tissue; host or cells: bovine lens
Text: In the present case the procedure of Hayman and Kinoshita is modified in that the final chromatography step is omitted in the preparation of the enzyme from bovine lens.

COc1ccc2c(C(=S)N(C)CC(=O)O)ccc(OC)c2c1C(F)(F)F [CH3, H, 4-CH3 O, 5-CF3,6-CH3 O, N-[[4,6-dimethoxy-5-(trifluoromethyl)-1-naphthalenyl]thioxomethyl]-N-methylglycine]
percentage decrease of dulcitol accumulation, lens (L) ([1]; 144 mg/kg/day in diet): 33%

COC(=O)CN(C)C(=S)c1cccc2c(Br)cccc12 [Example 3, N-[(5-Bromo-1-naphthalenyl)thioxomethyl]-N-methylglycine Methyl Ester]
inhibition at 10 µM (aldose reductase): 8%

COC(=O)CN(C)C(=S)c1cccc2c(C(F)(F)F)c(OC)ccc12 [Example 23, N-[[5-(trifluoromethyl)-6-methoxy-1-naphthalenyl]thioxomethyl]-N-methylglycine methyl ester]
inhibition at 10 µM (aldose reductase): 9% | percentage decrease of dulcitol accumulation, lens (L) ([1]; 11 mg/kg/day in diet): 10%

COc1c(Cl)cc(C(=S)NCC(=O)O)c2ccccc12 [Example 32 (H, H, 3-Cl, 4-CH3 O), N-[(3-chloro-4-methoxy-1-naphthalenyl)thioxomethyl]glycine]
inhibition at 10 µM (aldose reductase): 61% | inhibition at 1 µM (aldose reductase): 16%

CN(CC(=O)O)C(=S)c1cccc2c(Br)cccc12 [Example 32, N-[(5-Bromo-1-naphthalenyl)thioxomethyl]-N-methylglycine]
inhibition at 10 µM (aldose reductase): 93% | inhibition at 1 µM (aldose reductase): 87% | inhibition at 0.1 µM (aldose reductase): 47% | percentage decrease of dulcitol accumulation, lens (L) ([1]; 62 mg/kg/day in diet): 14% | percentage decrease of dulcitol accumulation, lens (L) ([1]; 121 mg/kg/day in diet): 20% | percentage decrease of dulcitol accumulation, lens (L) ([1]; 189 mg/kg/day in diet): 24%

CN(CC(=O)O)C(=S)c1ccc(Br)c2ccccc12 [Example 33, N-[(4-bromo-1-naphthalenyl)thioxomethyl]-N-methylglycine]
inhibition at 10 µM (aldose reductase): 91% | inhibition at 1 µM (aldose reductase): 77% | inhibition at 0.1 µM (aldose reductase): 32%

CN(CC(=O)O)C(=S)c1cccc2cccc(Br)c12 [Example 34, N-[(8-bromo-1-naphthalenyl)thioxomethyl]-N-methylglycine]
inhibition at 10 µM (aldose reductase): 88% | inhibition at 1 µM (aldose reductase): 75% | inhibition at 0.1 µM (aldose reductase): 24%

COc1cccc2c(C(=S)N(C)CC(=O)O)cccc12 [Example 35, N-[(5-methoxy-1-naphthalenyl)thioxomethyl]-N-methylglycine]
inhibition at 10 µM (aldose reductase): 83% | inhibition at 1 µM (aldose reductase): 64% | inhibition at 0.1 µM (aldose reductase): 17%

Cc1cccc2c(C(=S)N(C)CC(=O)O)cccc12 [Example 36, N-[(5-methyl-1-naphthalenyl)thioxomethyl]-N-methylglycine]
inhibition at 10 µM (aldose reductase): 89% | inhibition at 1 µM (aldose reductase): 74% | inhibition at 0.1 µM (aldose reductase): 26%

CCCCCOc1ccc2c(C(=S)N(C)CC(=O)O)cccc2c1Br [Example 37, N-[(5-bromo-6-pentyloxy-1-naphthalenyl)thioxomethyl]-N-methylglycine]
inhibition at 10 µM (aldose reductase): 93% | inhibition at 1 µM (aldose reductase): 91% | inhibition at 0.1 µM (aldose reductase): 55%

CN(CC(=O)O)C(=S)c1cccc2c(C#N)cccc12 [Example 38, N-[(5-cyano-1-naphthalenyl)thioxomethyl]-N-methylglycine]
inhibition at 10 µM (aldose reductase): 89% | inhibition at 1 µM (aldose reductase): 79% | inhibition at 0.1 µM (aldose reductase): 32%

CN(CC(=O)O)C(=S)c1cccc2c([N+](=O)[O-])cccc12 [Example 39, N-[(5-nitro-1-naphthalenyl)thioxomethyl]-N-methylglycine]
inhibition at 10 µM (aldose reductase): 91% | inhibition at 1 µM (aldose reductase): 83% | inhibition at 0.1 µM (aldose reductase): 43%

Cc1ccc2c(C(=S)N(C)CC(=O)O)cccc2c1Br [Example 42, N-[(5-bromo-6-methyl-1-naphthalenyl)thioxomethyl]-N-methylglycine]
inhibition at 10 µM (aldose reductase): 92% | inhibition at 1 µM (aldose reductase): 88% | inhibition at 0.1 µM (aldose reductase): 55%

CN(CC(=O)O)C(=S)c1cccc2ccccc12 [Example 43, N--((1naphthalenyl)thioxomethyl)-N--methylglycine]
inhibition at 10 µM (aldose reductase): 85% | inhibition at 1 µM (aldose reductase): 51% | inhibition at 0.1 µM (aldose reductase): 13%

CN(CC(=O)O)C(=S)c1ccc(Cl)c2ccccc12 [Example 44, N-[(4-chloro-1-naphthalenyl)thioxomethyl]-N-methylglycine]
inhibition at 10 µM (aldose reductase): 88% | inhibition at 1 µM (aldose reductase): 73% | inhibition at 0.1 µM (aldose reductase): 25%

COc1ccc2c(C(=S)N(C)CC(=O)O)cccc2c1I [Example 47, N-[(5-iodo-6-methoxy-1-naphthalenyl)thioxomethyl]-N-methylglycine]
inhibition at 10 µM (aldose reductase): 98% | inhibition at 1 µM (aldose reductase): 95% | inhibition at 0.1 µM (aldose reductase): 72%

COc1ccc2c(C(=S)N(C)CC(=O)O)cccc2c1C#N [Example 48, N-[(5-cyano-6-methoxy-1-naphthalenyl)thioxomethyl]-N-methylglycine]
inhibition at 10 µM (aldose reductase): 98% | inhibition at 1 µM (aldose reductase): 93% | inhibition at 0.1 µM (aldose reductase): 74%

COCCCOc1ccc2c(C(=S)N(C)CC(=O)O)cccc2c1Br [Example 49, N-[[5-bromo-6-(3-methoxy-propoxy)-1-naphthalenyl]thioxomethyl]-N-methylglycine]
inhibition at 10 µM (aldose reductase): 92% | inhibition at 1 µM (aldose reductase): 87% | inhibition at 0.1 µM (aldose reductase): 38%

C=C(C)c1cccc2c(C(=S)N(C)CC(=O)O)cccc12 [Example 50, N-[[5-(1-methylethenyl)-1-naphthalenyl]thioxomethyl]-N-methylglycine]
inhibition at 10 µM (aldose reductase): 92% | inhibition at 1 µM (aldose reductase): 74% | inhibition at 0.1 µM (aldose reductase): 19%

CC(C)c1cccc2c(C(=S)N(C)CC(=O)O)cccc12 [Example 51, N-[[5-(1-methylethyl)-1-naphthalenyl]thioxomethyl]-N-methylglycine]
inhibition at 10 µM (aldose reductase): 91% | inhibition at 1 µM (aldose reductase): 72% | inhibition at 0.1 µM (aldose reductase): 21%

COc1ccc2c(C(=S)N(C)CC(=O)O)cccc2c1C(F)(F)F [Example 52, N-[[5-(trifluoromethyl)-6-methoxy-1-naphthalenyl]thioxomethyl]-N-methylglycine]
percentage decrease of dulcitol accumulation, lens (L) ([1]; 26 mg/kg/day in diet): 15%

CN(CC(=O)O)C(=S)c1cccc2c(Br)c(OCc3cccc(C(F)(F)F)c3)ccc12 [Example 53, N-[[5-bromo-6-[3-(trifluoromethyl)phenylmethoxy]-1-naphthalenyl]thioxomethyl]-N-methylglycine]
inhibition at 10 µM (aldose reductase): 86% | inhibition at 1 µM (aldose reductase): 37% | inhibition at 0.1 µM (aldose reductase): 11%

CN(CC(=O)O)C(=S)c1cccc2c(Br)c(OCc3ccc(Cl)cc3)ccc12 [Example 53a, N-[[5-bromo-6-(4-chlorophenylmethoxy)-1-naphthalenyl]thioxomethyl]-N-methylglycine]
inhibition at 10 µM (aldose reductase): 88% | inhibition at 1 µM (aldose reductase): 44% | inhibition at 0.1 µM (aldose reductase): 4%

O=C(O)CNC(=S)c1cccc2c(Br)cccc12 [Example 54, N-[(5-bromo-1-naphthalenyl)thioxomethyl]glycine]
inhibition at 10 µM (aldose reductase): 54% | inhibition at 1 µM (aldose reductase): 14%

CCCN(CC(=O)O)C(=S)c1cccc2c(Br)cccc12 [Example 55, N-[(5-bromo-1-naphthalenyl)thioxomethyl]-N-propylglycine]
inhibition at 10 µM (aldose reductase): 91% | inhibition at 1 µM (aldose reductase): 70% | inhibition at 0.1 µM (aldose reductase): 19%

C=CCN(CC(=O)O)C(=S)c1cccc2c(Br)cccc12 [Example 56, N-[(5-bromo-1-naphthalenyl)thioxomethyl]-N-(2-propylene)glycine]
inhibition at 10 µM (aldose reductase): 92% | inhibition at 1 µM (aldose reductase): 77% | inhibition at 0.1 µM (aldose reductase): 27%

CCN(CC(=O)O)C(=S)c1cccc2c(Br)cccc12 [Example 57, N-[(5-bromo-1-naphthalenyl)thioxomethyl]-N-ethylglycine]
inhibition at 10 µM (aldose reductase): 85% | inhibition at 1 µM (aldose reductase): 72% | inhibition at 0.1 µM (aldose reductase): 24%

CCCCN(CC(=O)O)C(=S)c1cccc2c(Br)cccc12 [Example 58, N-[(5-bromo-1-naphthalenyl)thioxomethyl]-N-butylglycine]
inhibition at 10 µM (aldose reductase): 86% | inhibition at 1 µM (aldose reductase): 65% | inhibition at 0.1 µM (aldose reductase): 19%

O=C(O)CN(Cc1ccccc1)C(=S)c1cccc2c(Br)cccc12 [Example 59, N-[(5-bromo-1-naphthalenyl)thioxomethyl]-N-(phenylmethyl)glycine]
inhibition at 10 µM (aldose reductase): 86% | inhibition at 1 µM (aldose reductase): 69% | inhibition at 0.1 µM (aldose reductase): 20%

CN(CC(=O)O)C(=O)c1cccc2c(Br)cccc12 [N-[(5-Bromo-1-naphthalenyl)carbonyl]-N-methylglycine]
inhibition at 10 µM (aldose reductase): 64% | inhibition at 1 µM (aldose reductase): 21%

COc1ccc2c(C(=O)N(C)CC(=O)O)cccc2c1C(F)(F)F [N-[[5-(trifluoromethyl)-6-methoxy-1-naphthalenyl]carbonyl]-N-methylglycine]
inhibition at 10 µM (aldose reductase): 94% | inhibition at 1 µM (aldose reductase): 93% | inhibition at 0.1 µM (aldose reductase): 60%
